Literature values as cited in patent publication US7994166B2, “Pyrrolidinone benzenesulfonamide derivatives as modulators of ion channels for the treatment of pain” (Vertex Pharmaceuticals Incorporated, priority 2007, dated 2011).

Target: NaV1.8 (Homo sapiens, UniProt Q9Y5Y9)
Details: read-out: TTX IC50

Chain of NaV1.8 (Q9Y5Y9 whole entry, looked up): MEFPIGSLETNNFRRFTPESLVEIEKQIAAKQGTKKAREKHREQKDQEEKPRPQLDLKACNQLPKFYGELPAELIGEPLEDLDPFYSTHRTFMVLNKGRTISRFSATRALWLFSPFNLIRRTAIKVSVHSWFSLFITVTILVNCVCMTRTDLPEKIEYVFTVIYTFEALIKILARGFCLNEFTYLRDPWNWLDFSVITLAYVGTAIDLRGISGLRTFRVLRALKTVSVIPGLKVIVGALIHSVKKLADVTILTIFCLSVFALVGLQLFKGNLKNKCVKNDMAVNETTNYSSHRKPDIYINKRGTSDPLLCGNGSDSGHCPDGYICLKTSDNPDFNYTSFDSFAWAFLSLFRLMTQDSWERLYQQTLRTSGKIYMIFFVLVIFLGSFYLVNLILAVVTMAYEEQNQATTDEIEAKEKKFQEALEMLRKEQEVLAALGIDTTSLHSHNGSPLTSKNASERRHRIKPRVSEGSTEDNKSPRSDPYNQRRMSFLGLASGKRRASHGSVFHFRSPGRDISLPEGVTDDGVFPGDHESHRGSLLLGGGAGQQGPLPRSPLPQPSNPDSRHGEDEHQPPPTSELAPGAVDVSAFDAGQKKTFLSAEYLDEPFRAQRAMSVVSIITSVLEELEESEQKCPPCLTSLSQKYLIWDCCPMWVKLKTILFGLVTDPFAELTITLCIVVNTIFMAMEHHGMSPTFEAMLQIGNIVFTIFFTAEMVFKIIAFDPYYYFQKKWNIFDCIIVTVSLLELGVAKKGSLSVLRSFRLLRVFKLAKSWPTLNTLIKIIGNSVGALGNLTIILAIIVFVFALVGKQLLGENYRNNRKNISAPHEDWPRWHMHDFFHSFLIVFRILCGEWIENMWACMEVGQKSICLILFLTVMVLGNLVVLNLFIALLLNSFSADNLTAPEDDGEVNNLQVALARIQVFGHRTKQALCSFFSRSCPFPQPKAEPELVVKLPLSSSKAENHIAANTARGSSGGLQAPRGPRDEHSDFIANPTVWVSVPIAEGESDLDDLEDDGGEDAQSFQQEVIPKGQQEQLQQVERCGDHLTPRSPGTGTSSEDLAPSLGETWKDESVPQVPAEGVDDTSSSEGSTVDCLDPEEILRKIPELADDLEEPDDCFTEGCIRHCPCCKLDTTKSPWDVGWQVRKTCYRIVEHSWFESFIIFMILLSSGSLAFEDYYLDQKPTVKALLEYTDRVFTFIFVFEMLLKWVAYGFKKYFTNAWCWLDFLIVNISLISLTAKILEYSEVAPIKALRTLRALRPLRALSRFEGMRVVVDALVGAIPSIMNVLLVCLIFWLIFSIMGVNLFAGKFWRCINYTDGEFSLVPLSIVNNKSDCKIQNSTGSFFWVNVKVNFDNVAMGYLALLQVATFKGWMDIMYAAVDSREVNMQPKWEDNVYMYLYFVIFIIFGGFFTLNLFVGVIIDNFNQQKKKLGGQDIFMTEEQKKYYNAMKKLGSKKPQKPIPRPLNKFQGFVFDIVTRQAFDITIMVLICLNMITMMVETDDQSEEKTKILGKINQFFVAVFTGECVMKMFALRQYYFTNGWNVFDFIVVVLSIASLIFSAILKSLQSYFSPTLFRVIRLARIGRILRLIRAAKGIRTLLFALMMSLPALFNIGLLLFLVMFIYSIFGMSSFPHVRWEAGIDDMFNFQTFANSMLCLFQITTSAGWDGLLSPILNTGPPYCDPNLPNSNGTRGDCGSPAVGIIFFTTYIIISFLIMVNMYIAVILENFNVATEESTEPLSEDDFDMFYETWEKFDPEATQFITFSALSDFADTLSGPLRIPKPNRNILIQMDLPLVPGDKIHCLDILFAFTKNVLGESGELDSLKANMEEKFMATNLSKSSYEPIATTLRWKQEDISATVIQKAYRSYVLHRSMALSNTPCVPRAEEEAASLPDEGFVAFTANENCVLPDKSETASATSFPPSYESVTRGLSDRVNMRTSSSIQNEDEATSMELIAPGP

NC1=N[C@H](O)[C@H]2[C@H]3O[C@]4(O)O[C@@H]([C@@H](O)[C@@]2(N1)[C@@H]4O)[C@]3(O)CO [TTX, tetrodotoxin]
IC50: > 50 µM
